Patent publication US6689773B2, “Uracil substituted phenyl sulfamoyl carboxamides” (BASF Aktiengesellschaft, priority 2000, dated 2004)

Experiments:
Type in all cases: in vivo
[1] = tested on: TRZAW, Winter wheat, Tritium Aestivum, L. (Winter); assay: Postemergence herbicidal evaluation (Example 147); conditions: rating scale 0-9, two to three weeks after treatment
Outline: (§1)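 First, seedlings were raised for about two weeks. Next, they were sprayed at 40 psi with compound (about 0.016 to 0.032 kg/ha) in acetone/water 80/20 containing 1.0% methylated seed oil. Finally, after two to three greenhouse weeks, overall appearance versus control was rated 0-9, averaging repeat tests.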

[2] = tested on: ABUTH, Velvetleaf, Abutilon theophrasti, Medic.; assay: Postemergence herbicidal evaluation (Example 147); conditions: rating scale 0-9, two to three weeks after treatment
Outline: as §1

[3] = tested on: XANST, Cocklebur, Xanthium strumariam; assay: Postemergence herbicidal evaluation (Example 147); conditions: rating scale 0-9, two to three weeks after treatment
Outline: as §1

[4] = tested on: GLXMA, Soybean, Glycine max, (L.) Merr.; assay: Postemergence herbicidal evaluation (Example 147); conditions: rating scale 0-9, two to three weeks after treatment
Outline: as §1

[5] = tested on: CHEAL, Lambsquarters, Chenopodium album, L. Common; assay: Postemergence herbicidal evaluation (Example 147); conditions: rating scale 0-9, two to three weeks after treatment
Outline: as §1

[6] = tested on: IPOHE, Morningglory, Ivyleaf, Ipomoea hederacea, (L)Jacq.; assay: Postemergence herbicidal evaluation (Example 147); conditions: rating scale 0-9, two to three weeks after treatment
Outline: as §1

[7] = tested on: ZEAMX, Field corn, Zea mays L.; assay: Postemergence herbicidal evaluation (Example 147); conditions: rating scale 0-9, two to three weeks after treatment
Outline: as §1

[8] = tested on: AMBEL, Ragweed, Common, Ambrosia artemiisifolia, L.; assay: Postemergence herbicidal evaluation (Example 147); conditions: rating scale 0-9, two to three weeks after treatment
Outline: as §1

[9] = tested on: DIGSA, Crabgrass, (Hairy) L, Digitaria sanguinalis, (L)Scop; assay: Postemergence herbicidal evaluation (Example 147); conditions: rating scale 0-9, two to three weeks after treatment
Outline: as §1

[10] = tested on: ECHCG, Barnyardgrass, Echinochloa crusgalli, (L.)Beau; assay: Postemergence herbicidal evaluation (Example 147); conditions: rating scale 0-9, two to three weeks after treatment
Outline: as §1

[11] = tested on: ALOMY, Blackgrass, Alopecurus myosuroides; assay: Postemergence herbicidal evaluation (Example 147); conditions: rating scale 0-9, two to three weeks after treatment
Outline: as §1

[12] = tested on: SETVI, Green foxtail, Setaria viridis, (L.)Beau; assay: Postemergence herbicidal evaluation (Example 147); conditions: rating scale 0-9, two to three weeks after treatment
Outline: as §1

[13] = tested on: TRZAW, Winter wheat, Tritium Aestivum, L. (Winter); assay: Preemergence herbicidal evaluation (Example 148); conditions: rating scale 0-9, two to four weeks after treatment
Outline: (§2)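 Applied: aqueous acetone solution, ~0.125–0.250 kg/ha, sprayed on soil just after seeding. Read: visual plant appearance against control, 2–4 weeks post-spray.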

[14] = tested on: ABUTH, Velvetleaf, Abutilon theophrasti, Medic.; assay: Preemergence herbicidal evaluation (Example 148); conditions: rating scale 0-9, two to four weeks after treatment
Outline: as §2

[15] = tested on: XANST, Cocklebur, Xanthium strumariam; assay: Preemergence herbicidal evaluation (Example 148); conditions: rating scale 0-9, two to four weeks after treatment
Outline: as §2

[16] = tested on: GLXMA, Soybean, Glycine max, (L.) Merr.; assay: Preemergence herbicidal evaluation (Example 148); conditions: rating scale 0-9, two to four weeks after treatment
Outline: as §2

[17] = tested on: CHEAL, Lambsquarters, Chenopodium album, L. Common; assay: Preemergence herbicidal evaluation (Example 148); conditions: rating scale 0-9, two to four weeks after treatment
Outline: as §2

[18] = tested on: IPOHE, Morningglory, Ivyleaf, Ipomoea hederacea, (L)Jacq.; assay: Preemergence herbicidal evaluation (Example 148); conditions: rating scale 0-9, two to four weeks after treatment
Outline: as §2

[19] = tested on: ZEAMX, Field corn, Zea mays L.; assay: Preemergence herbicidal evaluation (Example 148); conditions: rating scale 0-9, two to four weeks after treatment
Outline: as §2

[20] = tested on: AMBEL, Ragweed, Common, Ambrosia artemiisifolia, L.; assay: Preemergence herbicidal evaluation (Example 148); conditions: rating scale 0-9, two to four weeks after treatment
Outline: as §2

[21] = tested on: DIGSA, Crabgrass, (Hairy) L, Digitaria sanguinalis, (L)Scop; assay: Preemergence herbicidal evaluation (Example 148); conditions: rating scale 0-9, two to four weeks after treatment
Outline: as §2

[22] = tested on: ECHCG, Barnyardgrass, Echinochloa crusgalli, (L.)Beau; assay: Preemergence herbicidal evaluation (Example 148); conditions: rating scale 0-9, two to four weeks after treatment
Outline: as §2

[23] = tested on: ALOMY, Blackgrass, Alopecurus myosuroides; assay: Preemergence herbicidal evaluation (Example 148); conditions: rating scale 0-9, two to four weeks after treatment
Outline: as §2

[24] = tested on: SETVI, Green foxtail, Setaria viridis, (L.)Beau; assay: Preemergence herbicidal evaluation (Example 148); conditions: rating scale 0-9, two to four weeks after treatment
Outline: as §2

In the case of `CCN(CC)S(=O)(=O)NC(=O)c1cc(-n2c(=O)cc(C(F)(F)F)n(C)c2=O)c(F)cc1Cl` [Example 68], the “Postemergence herbicidal rating TRZAW” value ([1]; rate 0.016 kg/ha) was 5.0, the “Postemergence herbicidal rating TRZAW” value ([1]; rate 0.032 kg/ha) was 5.5 and the “Postemergence herbicidal rating ABUTH” value ([2]; rate 0.016 kg/ha) was 9.0. For the same molecule, the “Postemergence herbicidal rating ABUTH” value ([2]; rate 0.032 kg/ha) was 9.0, the “Postemergence herbicidal rating XANST” value ([3]; rate 0.016 kg/ha) was 9.0 and the “Postemergence herbicidal rating XANST” value ([3]; rate 0.032 kg/ha) was 9.0. For the same molecule, the “Postemergence herbicidal rating GLXMA” value ([4]; rate 0.016 kg/ha) was 8.5, the “Postemergence herbicidal rating GLXMA” value ([4]; rate 0.032 kg/ha) was 8.5 and the “Postemergence herbicidal rating CHEAL” value ([5]; rate 0.016 kg/ha) was 8.0. The “Postemergence herbicidal rating CHEAL” value ([5]; rate 0.032 kg/ha) was 8.0, the “Postemergence herbicidal rating IPOHE” value ([6]; rate 0.016 kg/ha) was 9.0 and the “Postemergence herbicidal rating IPOHE” value ([6]; rate 0.032 kg/ha) was 9.0. The “Postemergence herbicidal rating ZEAMX” value ([7]; rate 0.016 kg/ha) was 7.0, the “Postemergence herbicidal rating ZEAMX” value ([7]; rate 0.032 kg/ha) was 7.5 and the “Postemergence herbicidal rating AMBEL” value ([8]; rate 0.016 kg/ha) was 9.0. The “Postemergence herbicidal rating AMBEL” value ([8]; rate 0.032 kg/ha) was 9.0, the “Postemergence herbicidal rating DIGSA” value ([9]; rate 0.016 kg/ha) was 6.0 and the “Postemergence herbicidal rating DIGSA” value ([9]; rate 0.032 kg/ha) was 6.0. The “Postemergence herbicidal rating ECHCG” value ([10]; rate 0.016 kg/ha) was 8.0, the “Postemergence herbicidal rating ECHCG” value ([10]; rate 0.032 kg/ha) was 8.0 and the “Postemergence herbicidal rating ALMOY” value ([11]; rate 0.016 kg/ha) was 1.0. For the same molecule, the “Postemergence herbicidal rating ALMOY” value ([11]; rate 0.032 kg/ha) was 1.0, the “Postemergence herbicidal rating SETVI” value ([12]; rate 0.016 kg/ha) was 7.0 and the “Postemergence herbicidal rating SETVI” value ([12]; rate 0.032 kg/ha) was 9.0. For the same molecule, the “Preemergence herbicidal rating TRZAW” value ([13]; rate 0.125 kg/ha) was 0.0, the “Preemergence herbicidal rating TRZAW” value ([13]; rate 0.25 kg/ha) was 0.0 and the “Preemergence herbicidal rating ABUTH” value ([14]; rate 0.125 kg/ha) was 9.0. For the same molecule, the “Preemergence herbicidal rating ABUTH” value ([14]; rate 0.25 kg/ha) was 9.0, the “Preemergence herbicidal rating XANST” value ([15]; rate 0.125 kg/ha) was 9.0 and the “Preemergence herbicidal rating XANST” value ([15]; rate 0.25 kg/ha) was 9.0. The “Preemergence herbicidal rating GLXMA” value ([16]; rate 0.125 kg/ha) was 7.0, the “Preemergence herbicidal rating GLXMA” value ([16]; rate 0.25 kg/ha) was 8.0 and the “Preemergence herbicidal rating CHEAL” value ([17]; rate 0.125 kg/ha) was 8.0. The “Preemergence herbicidal rating CHEAL” value ([17]; rate 0.25 kg/ha) was 8.0, the “Preemergence herbicidal rating IPOHE” value ([18]; rate 0.125 kg/ha) was 9.0 and the “Preemergence herbicidal rating IPOHE” value ([18]; rate 0.25 kg/ha) was 9.0. The “Preemergence herbicidal rating ZEAMX” value ([19]; rate 0.125 kg/ha) was 1.0, the “Preemergence herbicidal rating ZEAMX” value ([19]; rate 0.25 kg/ha) was 2.0 and the “Preemergence herbicidal rating AMBEL” value ([20]; rate 0.125 kg/ha) was 9.0. For the same molecule, the “Preemergence herbicidal rating AMBEL” value ([20]; rate 0.25 kg/ha) was 9.0, the “Preemergence herbicidal rating DIGSA” value ([21]; rate 0.125 kg/ha) was 3.0 and the “Preemergence herbicidal rating DIGSA” value ([21]; rate 0.25 kg/ha) was 4.0. For the same molecule, the “Preemergence herbicidal rating ECHCG” value ([22]; rate 0.125 kg/ha) was 3.0, the “Preemergence herbicidal rating ECHCG” value ([22]; rate 0.25 kg/ha) was 4.0 and the “Preemergence herbicidal rating ALMOY” value ([23]; rate 0.125 kg/ha) was 0.0. The “Preemergence herbicidal rating ALMOY” value ([23]; rate 0.25 kg/ha) was 0.0, the “Preemergence herbicidal rating SETVI” value ([24]; rate 0.125 kg/ha) was 4.0 and the “Preemergence herbicidal rating SETVI” value ([24]; rate 0.25 kg/ha) was 8.0.
With `C=CCN(C)S(=O)(=O)NC(=O)c1cc(-n2c(=O)cc(C(F)(F)F)n(C)c2=O)c(F)cc1Cl` [Example 59] the “Postemergence herbicidal rating TRZAW” value ([1]; rate 0.016 kg/ha) was 4.0, the “Postemergence herbicidal rating TRZAW” value ([1]; rate 0.032 kg/ha) was 4.5 and the “Postemergence herbicidal rating ABUTH” value ([2]; rate 0.016 kg/ha) was 9.0. The “Postemergence herbicidal rating ABUTH” value ([2]; rate 0.032 kg/ha) was 9.0, the “Postemergence herbicidal rating XANST” value ([3]; rate 0.016 kg/ha) was 9.0 and the “Postemergence herbicidal rating XANST” value ([3]; rate 0.032 kg/ha) was 9.0. The “Postemergence herbicidal rating GLXMA” value ([4]; rate 0.016 kg/ha) was 8.0, the “Postemergence herbicidal rating GLXMA” value ([4]; rate 0.032 kg/ha) was 8.5 and the “Postemergence herbicidal rating CHEAL” value ([5]; rate 0.016 kg/ha) was 7.0. The “Postemergence herbicidal rating CHEAL” value ([5]; rate 0.032 kg/ha) was 8.0, the “Postemergence herbicidal rating IPOHE” value ([6]; rate 0.016 kg/ha) was 9.0 and the “Postemergence herbicidal rating IPOHE” value ([6]; rate 0.032 kg/ha) was 9.0. For the same molecule, the “Postemergence herbicidal rating ZEAMX” value ([7]; rate 0.016 kg/ha) was 8.0, the “Postemergence herbicidal rating ZEAMX” value ([7]; rate 0.032 kg/ha) was 8.0 and the “Postemergence herbicidal rating AMBEL” value ([8]; rate 0.016 kg/ha) was 7.0. The “Postemergence herbicidal rating AMBEL” value ([8]; rate 0.032 kg/ha) was 9.0, the “Postemergence herbicidal rating DIGSA” value ([9]; rate 0.016 kg/ha) was 4.0 and the “Postemergence herbicidal rating DIGSA” value ([9]; rate 0.032 kg/ha) was 5.0. For the same molecule, the “Postemergence herbicidal rating ECHCG” value ([10]; rate 0.016 kg/ha) was 6.0, the “Postemergence herbicidal rating ECHCG” value ([10]; rate 0.032 kg/ha) was 7.0 and the “Postemergence herbicidal rating ALMOY” value ([11]; rate 0.016 kg/ha) was 3.0. The “Postemergence herbicidal rating ALMOY” value ([11]; rate 0.032 kg/ha) was 4.0, the “Postemergence herbicidal rating SETVI” value ([12]; rate 0.016 kg/ha) was 7.0 and the “Postemergence herbicidal rating SETVI” value ([12]; rate 0.032 kg/ha) was 8.0. For the same molecule, the “Preemergence herbicidal rating TRZAW” value ([13]; rate 0.125 kg/ha) was 0.0, the “Preemergence herbicidal rating TRZAW” value ([13]; rate 0.25 kg/ha) was 0.0 and the “Preemergence herbicidal rating ABUTH” value ([14]; rate 0.125 kg/ha) was 9.0. The “Preemergence herbicidal rating ABUTH” value ([14]; rate 0.25 kg/ha) was 9.0, the “Preemergence herbicidal rating XANST” value ([15]; rate 0.125 kg/ha) was 0.0 and the “Preemergence herbicidal rating XANST” value ([15]; rate 0.25 kg/ha) was 9.0. The “Preemergence herbicidal rating GLXMA” value ([16]; rate 0.125 kg/ha) was 2.0, the “Preemergence herbicidal rating GLXMA” value ([16]; rate 0.25 kg/ha) was 8.0 and the “Preemergence herbicidal rating CHEAL” value ([17]; rate 0.125 kg/ha) was 9.0. The “Preemergence herbicidal rating CHEAL” value ([17]; rate 0.25 kg/ha) was 9.0, the “Preemergence herbicidal rating IPOHE” value ([18]; rate 0.125 kg/ha) was 9.0 and the “Preemergence herbicidal rating IPOHE” value ([18]; rate 0.25 kg/ha) was 9.0. For the same molecule, the “Preemergence herbicidal rating ZEAMX” value ([19]; rate 0.125 kg/ha) was 0.0, the “Preemergence herbicidal rating ZEAMX” value ([19]; rate 0.25 kg/ha) was 2.0 and the “Preemergence herbicidal rating AMBEL” value ([20]; rate 0.125 kg/ha) was 9.0. The “Preemergence herbicidal rating AMBEL” value ([20]; rate 0.25 kg/ha) was 9.0, the “Preemergence herbicidal rating DIGSA” value ([21]; rate 0.125 kg/ha) was 3.0 and the “Preemergence herbicidal rating DIGSA” value ([21]; rate 0.25 kg/ha) was 7.0. For the same molecule, the “Preemergence herbicidal rating ECHCG” value ([22]; rate 0.125 kg/ha) was 0.0, the “Preemergence herbicidal rating ECHCG” value ([22]; rate 0.25 kg/ha) was 3.0 and the “Preemergence herbicidal rating ALMOY” value ([23]; rate 0.125 kg/ha) was 0.0. For the same molecule, the “Preemergence herbicidal rating ALMOY” value ([23]; rate 0.25 kg/ha) was 4.0, the “Preemergence herbicidal rating SETVI” value ([24]; rate 0.125 kg/ha) was 4.0 and the “Preemergence herbicidal rating SETVI” value ([24]; rate 0.25 kg/ha) was 9.0.
